Measurements reported in ChEMBL document CHEMBL3862035, “In Silico Discovery and Validation of Amide Based Small Molecule Targeting the Enzymatic Site of Shiga Toxin” (J Med Chem, 2016).
Calls of active or inactive are those of the source. The calls are words filed in the database; no cut-off is given here.

Experiments:
[1] = Cytotoxicity against African green monkey Vero cells incubated for 24 hrs by neutral red uptake assay; assay type: toxicity, cell-based; details: chlorocebus sabaeus; for MNTC at 24 h: read-out: MTD
Mus musculus [2] = experiment: Inhibition of Shigella dysenteriae Shiga toxin-induced mortality in Balb/c mouse exposed to 5 x LD50 Shigella toxin assessed as increase in mouse survival at 2 mM, ip preincubated with Stx for 1 hr measured after 0 to 14 days; assay type: functional, organism-based
Mus musculus [3] = experiment: Inhibition of Shigella dysenteriae Shiga toxin-induced mortality in Balb/c mouse exposed to 5 x LD50 Shigella toxin assessed as reduction in symptomatic effects of toxin at 2 mM, ip preincubated with Stx for 1 hr measured after 0 to 14 days; assay type: functional, organism-based
Mus musculus [4] = experiment: Inhibition of Shigella dysenteriae Shiga toxin-induced mortality in Balb/c mouse exposed to 5 x LD50 Shigella toxin assessed as increase in mouse survival at 2 mM, ip dosed 1 hr before toxin injection measured after 24 to 48 hrs; assay type: functional, organism-based
Mus musculus [5] = experiment: Inhibition of Shigella dysenteriae Shiga toxin-induced mortality in Balb/c mouse exposed to 5 x LD50 Shigella toxin assessed as increase in mouse survival at 2 mM, ip dosed 1 after toxin injection measured after 24 to 48 hrs; assay type: functional, organism-based
Mus musculus [6] = experiment: Toxicity in Balb/c mouse at 2 mM, ip measured after 0 to 14 days; assay type: organism-based; details: in vivo, 2000 µM
[7] = Inhibition of Shigella dysenteriae type 2 Shiga toxin in African green monkey Vero cells assessed as inhibition of Stx-induced cytotoxicity incubated for 10 hrs by MTS/PMS assay; assay type: cell-based
[8] = molecular target: T1, Shiga toxin subunit A (Shigella dysenteriae) (UniProt Q9FBI2)
T1 sequence (whole entry): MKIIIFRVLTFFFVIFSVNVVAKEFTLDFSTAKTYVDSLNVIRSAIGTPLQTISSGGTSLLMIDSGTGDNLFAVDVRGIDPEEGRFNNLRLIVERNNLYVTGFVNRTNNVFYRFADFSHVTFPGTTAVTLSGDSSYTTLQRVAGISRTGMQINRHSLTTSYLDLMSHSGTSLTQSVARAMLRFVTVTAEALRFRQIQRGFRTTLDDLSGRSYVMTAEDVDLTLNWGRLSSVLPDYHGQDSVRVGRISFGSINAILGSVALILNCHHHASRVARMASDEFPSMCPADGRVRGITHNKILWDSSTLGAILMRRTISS

Q: Which MNTC at 24 h [1] does the source give for `Cc1ccsc1-c1cc(=O)c2ccccc2[nH]1` here?
A: The MNTC at 24 h was 5.33 µM.

Q: With `CC(=O)c1ccccc1NC(=O)c1ccc(F)cc1` as the compound, how does the MNTC at 24 h [1] read?
A: Its MNTC at 24 h is 10 µM.

Q: With `Nc1ncc2[nH]cnc2n1` [2-AMINOPURINE] as the compound, how does the MNTC at 24 h [1] read?
A: The MNTC at 24 h was 125 µM.

Q: For `O=C(NCCNCCSc1ccccc1)C1CCCCC1`, which MNTC at 24 h [1] is on record?
A: Its MNTC at 24 h is 38 µM.

Q: With `COc1ccc(/C=C/C(=O)c2ccccc2O)cc1` as the compound, how does the MNTC at 24 h [1] read?
A: Its MNTC at 24 h is 7.35 µM.

Q: Which inhibition (Mus musculus [2]) does the source give for `CCCSCCNCCNC(=O)/C=C/c1ccccc1` here?
A: Its inhibition is “Active”.

Q: And the CC50 at 24 h [1]?
A: Its CC50 at 24 h is 123 µM.

Q: What about the MNTC at 24 h [1] of the same compound?
A: Its MNTC at 24 h is 38 µM.

Q: And the inhibition (Mus musculus [3])?
A: The inhibition was “Active”.

Q: And the inhibition (Mus musculus [4])?
A: Its inhibition is “Active”.

Q: And the inhibition (Mus musculus [5])?
A: The inhibition was “Active”.

Q: What about the Activity (Mus musculus [6]) of the same compound?
A: The Activity was “Non-Toxic”.

Q: With `Nc1ccncn1` as the compound, how does the MNTC at 24 h [1] read?
A: Its MNTC at 24 h is 250 µM.

Q: With `Nc1ncnc2nn[nH]c12` as the compound, how does the MNTC at 24 h [1] read?
A: The MNTC at 24 h was 18.7 µM.

Q: Which MNTC at 24 h [1] does the source give for `Nc1ncnc2c1ncn2[C@@H]1O[C@H](COP(=O)(O)O)[C@@H](O)[C@H]1O` [ADENOSINE PHOSPHATE] here?
A: The MNTC at 24 h was 75 µM.

Q: Which MNTC at 24 h [1] does the source give for `c1ccc(SCCNCCN2CCCC2)cc1` here?
A: The MNTC at 24 h was 63.3 µM.

Q: What about the IC50 [7] of the same compound?
A: Its IC50 is 25 µM.

Q: With `Nc1ncnc2c1ncn2[C@@H]1O[C@H](CO)[C@@H](O)[C@H]1O` [ADENOSINE] as the compound, how does the MNTC at 24 h [1] read?
A: The MNTC at 24 h was 125 µM.

Q: For `CCCSCCNCCNC(=O)c1ccc(Cl)cc1`, which MNTC at 24 h [1] is on record?
A: The MNTC at 24 h was 124 µM.

Q: For `O=C(/C=C/c1ccccc1F)c1ccccc1O`, which MNTC at 24 h [1] is on record?
A: Its MNTC at 24 h is 5.67 µM.

Q: Which MNTC at 24 h [1] does the source give for `O=C(/C=C/c1cccs1)c1ccccc1O` here?
A: The MNTC at 24 h was 17 µM.

Q: For `S=C1N=CN=C2NC=NC12` (centres undefined), which MNTC at 24 h [1] is on record?
A: Its MNTC at 24 h is 18.7 µM.

Q: What does the source list for `O=C(NCCNCCSc1ccccc1)c1ccc([N+](=O)[O-])cc1`?
A: inhibition (Mus musculus [2]): Active; CC50 at 24 h [1]: 177 µM; MNTC at 24 h [1]: 15 µM; inhibition (Mus musculus [3]): Active; inhibition (Mus musculus [4]): Active; inhibition (Mus musculus [5]): Active; Activity (Mus musculus [6]): Non-Toxic

Q: Which results are given for `CC(=O)c1ccccc1NC(=O)c1ccccc1F`?
A: inhibition (Mus musculus [2]): Active; CC50 at 24 h [1]: 120 µM; MNTC at 24 h [1]: 37 µM; inhibition (Mus musculus [3]): Active; inhibition (Mus musculus [4]): Active; inhibition (Mus musculus [5]): Active; Activity (Mus musculus [6]): Non-Toxic

Q: With `CCCCSCCNCCNP(=S)(OCC)OCC` as the compound, how does the MNTC at 24 h [1] read?
A: Its MNTC at 24 h is 32.3 µM.

Q: What about the IC50 [7] of the same compound?
A: The IC50 was 25 µM.

Q: With `CC(=O)c1ccccc1NC(=O)/C=C\c1ccccc1` as the compound, how does the inhibition (Mus musculus [2]) read?
A: Its inhibition is “Active”.

Q: What about the CC50 at 24 h [1] of the same compound?
A: The CC50 at 24 h was 29.7 µM.

Q: What about the MNTC at 24 h [1] of the same compound?
A: The MNTC at 24 h was 6.96 µM.

Q: And the inhibition (Mus musculus [3])?
A: The inhibition was “Active”.

Q: And the inhibition (Mus musculus [4])?
A: The inhibition was “Active”.

Q: What about the inhibition (Mus musculus [5]) of the same compound?
A: Its inhibition is “Active”.

Q: And the Activity (Mus musculus [6])?
A: Its Activity is “Non-Toxic”.

Q: With `Oc1ncnc2[nH]ncc12` [ALLOPURINOL] as the compound, how does the CC50 at 24 h [1] read?
A: Its CC50 at 24 h is 428 µM.

Q: And the MNTC at 24 h [1]?
A: Its MNTC at 24 h is 250 µM.

Q: And the Activity (Mus musculus [6])?
A: The Activity was “Non-Toxic”.

Q: What about the ΔTm [8] of the same compound?
A: Its ΔTm is 3.75 °C.

Q: Which MNTC at 24 h [1] does the source give for `CC(=O)c1ccccc1NC(=O)c1ccc([N+](=O)[O-])cc1` here?
A: The MNTC at 24 h was 17.3 µM.

Q: With `Nc1nc(N)c2[nH]cnc2n1` [2,6-DIAMINOPURINE] as the compound, how does the MNTC at 24 h [1] read?
A: The MNTC at 24 h was 9.3 µM.

Q: Which MNTC at 24 h [1] does the source give for `O=C(/C=C/c1ccccc1)Oc1c(-c2ccccc2)oc2ccccc2c1=O` here?
A: Its MNTC at 24 h is 64 µM.

Q: For `O=c1cc(-c2ccccc2F)[nH]c2ccccc12`, which MNTC at 24 h [1] is on record?
A: The MNTC at 24 h was 5 µM.

Q: With `O=C1NC(=O)C2N=CNC2N1` (centres undefined) as the compound, how does the MNTC at 24 h [1] read?
A: The MNTC at 24 h was 9.3 µM.

Q: For `Oc1cc(/C=C/c2ccccc2)nc2ccccc12`, which MNTC at 24 h [1] is on record?
A: Its MNTC at 24 h is 9.33 µM.

Q: With `O=C(/C=C/c1ccccc1)Nc1ccccc1O` [N-(2-HYDROXYPHENYL)CINNAMAMIDE] as the compound, how does the MNTC at 24 h [1] read?
A: Its MNTC at 24 h is 32 µM.

Q: For `Nc1nc2nc[nH]c2c(=O)[nH]1` [GUANINE], which CC50 at 24 h [1] is on record?
A: Its CC50 at 24 h is 136 µM.

Q: What about the MNTC at 24 h [1] of the same compound?
A: The MNTC at 24 h was 125 µM.

Q: What about the Activity (Mus musculus [6]) of the same compound?
A: The Activity was “Non-Toxic”.

Q: For `O=C(/C=C\c1ccccc1)NCCO`, which MNTC at 24 h [1] is on record?
A: The MNTC at 24 h was 31.6 µM.

Q: For `O=C1NCN=C2NC=NC12` (centres undefined), which MNTC at 24 h [1] is on record?
A: Its MNTC at 24 h is 125 µM.

Q: What about the ΔTm [8] of the same compound?
A: The ΔTm was 2.32 °C.

Q: For `Nc1nc2[nH]cnc2c(=O)[nH]1`, which ΔTm [8] is on record?
A: The ΔTm was 4.45 °C.

Q: For `Cc1ncnc2nc[nH]c12`, which MNTC at 24 h [1] is on record?
A: The MNTC at 24 h was 9.3 µM.
